Experimental data from patent US10898469B2, “Imidazolylamide derivative” (Sumitomo Dainippon Pharma Co., Ltd., priority 2016, dated 2021).

Assays:
Type in all cases: cell-based, human
[1] = system: HT-29 cells; assay: Inhibition test for sphere-forming ability of cancer cells (Test Example 1), HT-29; conditions: concentration for 50% inhibition of cell proliferation, read-out: IC50 (μmol/L) HT-29 (Sphere IC50 value)
How it was run: (§1)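 HCT-116, HT-29 and FaDu cells seeded at 350-800 cells/well on ultra-low attachment plates in serum-free DMEM/F12 with B27, 20 ng/mL EGF, 10 ng/mL bFGF and 5 μg/mL insulin. Compound given at 0.1% DMSO for 4 days; viable cells measured by CellTiter-Glo to give Sphere IC50 (μmol/L).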

[2] = system: HCT-116 cells; assay: Inhibition test for sphere-forming ability of cancer cells in the presence of BSA (Test Example 2), HCT-116; conditions: for IC50: HCT-116 cells, in the presence of 5% BSA, cultured 4 days; for inhibitory effect on the sphere-forming ability of cancer cells: Test Example 2, in the presence of 5% BSA, summary in words, cell line not given (HCT-116, HT-29, FaDu tested)
Procedure: (§2) Human colorectal cancer-derived HCT-116 cells, human colon-adenocarcinoma-derived HT-29 cells, and human pharyngeal cancer-derived FaDu cells were available from American Type Culture Collection (ATCC). HCT-116 cells and HT-29 cells were cultured at 37° C. under 5% CO2 using the McCoy's 5a medium containing 10% fetal bovine serum (FBS) and 1% penicillin/streptomycin, and FaDu cells were cultured at 37° C. under 5% CO2 using the MEM medium containing 10% FBS, 1% non-essential amino acid, 1% sodium pyruvate, 5% bovine serum albumin (BSA), and 1% penicillin/streptomycin. HCT-116 cells, HT-29 cells, and FaDu cells were seeded in a 384 Well Black Clear Bottom Ultra-Low Attachment Microplate (Corning Cat. No. 3827) in an amount of 350-800 cells/well using the DMEM/F12 medium containing 2% B27 supplement (GIBCO), 20 ng/mL epidermal growth factor (EGF) (peprotech), 10 ng/mL basic fibroblast growth factor (bFGF) (peprotech), 5 μg/mL insulin (Sigma), 5% bovine serum albumin (BSA), and 1% penicillin/streptomycin. Each test compound was added into each well to adjust the final concentration of DMSO to 0.1%, and the cells were cultured for 4 days. The number of viable cells in each well was then measured with CellTiter-Glo® Luminescent Cell Viability Assay (Promega) to calculate the concentration of each test compound for 50% inhibition of cell proliferation (Sphere IC50 value; μmol/L).
(§3) The experiment of Test Example 2 was performed for each compound of each Example.
(§4) The concentration of each test compound for 50% inhibition of cell proliferation (Sphere IC50 value; μmol/L) is shown in the following Table.

[3] = system: HCT-116 cells; assay: Inhibition test for sphere-forming ability of cancer cells (Test Example 1), HCT-116; conditions: for IC50: HCT-116 cells, concentration for 50% inhibition of cell proliferation, read-out: IC50 (μmol/L) HCT-116 (Sphere IC50 value); for inhibitory effect on the sphere-forming ability of cancer cells: Test Example 1, summary in words, cell line not given (HCT-116, HT-29, FaDu tested)
How it was run: as §1

[4] = system: HT-29 cells; assay: Inhibition test for sphere-forming ability of cancer cells in the presence of BSA (Test Example 2), HT-29; conditions: in the presence of 5% BSA, cultured 4 days
Procedure: as §2, §3, §4

[5] = system: FaDu cells; assay: Inhibition test for sphere-forming ability of cancer cells (Test Example 1), FaDu; conditions: Homo sapiens, concentration for 50% inhibition of cell proliferation, read-out: IC50 (μmol/L) FaDu (Sphere IC50 value)
How it was run: as §1

SMILES	IC50 [1] [µmol/L]	IC50 [2] [nM]	IC50 [3] [µmol/L]	IC50 [4] [nM]	IC50 ([1]; Homo sapiens) [µmol/L]	IC50 ([2]; Homo sapiens, HCT-116, 96 h) [nM]	IC50 ([3]; Homo sapiens) [µmol/L]	IC50 ([4]; Homo sapiens, 96 h) [nM]	IC50 [5] [µmol/L]	inhibitory effect on the sphere-forming ability of cancer cells [3]	inhibitory effect on the sphere-forming ability of cancer cells [2]
O=C(Nc1cn(Cc2cccc(Cl)c2)cn1)c1cnc2ccccc2c1 [Example 138]	0.2	> 10000	0.1	6140	–	–	–	–	–	particularly potent inhibitory effect	–
N#Cc1ccc(/C=C/C(=O)Nc2cn(Cc3cccc(Cl)c3)cn2)cc1 [Example 22]	–	–	–	–	< 0.01	640	0.08	–	0.06	particularly potent inhibitory effect	particularly potent inhibitory effect
CC(=O)Nc1ccc(/C=C/C(=O)Nc2cn(Cc3cccc(Cl)c3)cn2)cc1 [Example 9, (2E)-3-[4-(acetylamino)phenyl]-N-[1-(3-chlorobenzyl)-1H-imidazol-4-yl]prop-2-enamide]	–	–	–	–	0.03	910	0.22	–	0.03	particularly potent inhibitory effect	–
Cc1ccc2cc(NC(=O)c3cn(Cc4cccc(Cl)c4)cn3)ccc2n1 [Example 255, 1-(3-Chlorobenzyl)-N-(2-methylquinolin-6-yl)-1H-imidazole-4-carboxamide]	–	–	–	–	< 0.01	630	0.06	390	–	particularly potent inhibitory effect	–
Cc1ccc2cc(NC(=O)c3cn(Cc4cc(F)c(F)c(F)c4)cn3)ccc2n1 [Example 252]	< 0.01	80	0.03	50	–	–	–	–	–	particularly potent inhibitory effect	particularly potent inhibitory effect
C=Cc1ncc(C(=O)Nc2cn(Cc3cccc(C(F)(F)F)c3)cn2)cc1OC [Example 100]	–	–	–	–	1.96	8380	6.63	6330	–	–	–
O=C(Nc1cn(Cc2cccc(Cl)c2)cn1)c1ccc2cnccc2c1 [Example 191]	0.09	690	0.31	530	–	–	–	–	–	particularly potent inhibitory effect	–
COc1ccc(NC(=O)c2cn(Cc3cccc(Cl)c3)cn2)cc1OC [Example 262]	0.6	6050	0.83	720	–	–	–	–	–	–	–
O=C(Nc1cn(Cc2cccc(C(F)(F)F)c2)cn1)c1cnc2ccccc2c1 [Example 181]	0.19	8000	0.77	3310	–	–	–	–	–	–	–
COc1ccc(/C=C/C(=O)Nc2cn(Cc3cccc(C(F)(F)F)c3)cn2)cc1O [Example 31, (E)-3-(3-Hydroxy-4-methoxyphenyl)-N-(1-(3-(trifluoromethyl)benzyl)-1H-imidazol-4-yl)acrylamide]	–	–	–	–	0.65	90	0.84	–	< 0.01	–	particularly potent inhibitory effect
CS(=O)(=O)Nc1ccc(/C=C/C(=O)Nc2cn(Cc3cccc(Cl)c3)cn2)cc1 [Example 4, (E)-N-(1-(3-Chlorobenzyl)-1H-imidazol-4-yl)-3-(4-(methylsulfonamide)phenyl)acrylamide]	–	–	–	–	0.69	6400	5.79	–	0.67	–	–

The next lines start with results.

IC50 [1] [µmol/L]	IC50 [2] [nM]	IC50 [3] [µmol/L]	IC50 [4] [nM]	IC50 ([1]; Homo sapiens) [µmol/L]	IC50 ([2]; Homo sapiens, HCT-116, 96 h) [nM]	IC50 ([3]; Homo sapiens) [µmol/L]	IC50 ([4]; Homo sapiens, 96 h) [nM]	IC50 [5] [µmol/L]	SMILES	inhibitory effect on the sphere-forming ability of cancer cells [3]	inhibitory effect on the sphere-forming ability of cancer cells [2]
0.06	270	0.06	60	–	–	–	–	–	O=C(Nc1cn(Cc2cc(F)c(F)c(F)c2)cn1)c1ccc2cnccc2c1 [Example 190]	particularly potent inhibitory effect	–
–	–	–	–	0.94	> 10000	6.02	5840	–	CC(=O)Nc1ccc(/C=C/C(=O)Nc2cn(Cc3cccc(C(F)(F)F)c3)cn2)nc1 [Example 230]	–	–
0.06	600	0.07	610	–	–	–	–	–	O=C(Nc1cn(Cc2cccc(C(F)(F)F)c2)cn1)c1ccc2cnccc2n1 [Example 193]	particularly potent inhibitory effect	–
6.04	> 10000	8.49	6270	–	–	–	–	–	O=C(Nc1cccnc1)c1cn(Cc2cccc(Cl)c2)cn1 [Example 264]	–	–
0.29	> 10000	0.94	6400	–	–	–	–	–	O=C(Nc1cn(Cc2cccc(C(F)(F)F)c2)cn1)c1ccc2ncccc2c1 [Example 183]	–	–
0.63	5540	0.72	850	–	–	–	–	–	O=C(Nc1cn(Cc2cccc(C(F)(F)F)c2)cn1)c1cnc2ncccc2c1 [Example 188]	–	–
–	–	–	–	0.01	590	0.06	–	< 0.01	COc1ccc(/C=C/C(=O)Nc2cn(Cc3cccc(Cl)c3)cn2)cc1OCCO [Example 33, (2E)-N-[1-(3-chlorobenzyl)-1H-imidazol-4-yl]-3-[3-(2-hydroxyethoxy)-4-methoxyphenyl]prop-2-enamide]	particularly potent inhibitory effect	particularly potent inhibitory effect
0.57	> 10000	0.81	6130	–	–	–	–	–	O=C(Nc1cn(Cc2cccc(Cl)c2)cn1)c1ccc2ncccc2c1 [Example 137]	–	–
0.76	> 10000	8.73	4930	–	–	–	–	–	O=C(Nc1cn(Cc2cccc(C(F)(F)F)c2)cn1)c1cncnc1 [Example 180]	–	–
–	–	–	–	0.83	6500	1	5130	–	O=C(Nc1cn(Cc2cccc(C(F)(F)F)c2)cn1)c1ccc(NCCO)nc1 [Example 248, 6-[(2-Hydroxyethyl)amino]-N-{1-[3-(trifluoromethyl)benzyl]-1H-imidazol-4-yl}nicotinamide]	–	–
< 0.01	70	0.05	70	–	–	–	–	–	O=C(Nc1cn(Cc2cccc(C(F)(F)F)c2)cn1)c1cnc2cnccc2c1 [Example 192]	particularly potent inhibitory effect	particularly potent inhibitory effect
0.05	560	0.08	100	–	–	–	–	–	O=C(Nc1cn(Cc2cccc(C(F)(F)F)c2)cn1)c1ccc2cnccc2c1 [Example 186]	particularly potent inhibitory effect	particularly potent inhibitory effect
–	–	–	–	0.29	2420	0.49	490	–	O=C(Nc1cn(Cc2cccc(C(F)(F)F)c2)cn1)c1ccc(NCC(F)(F)F)nc1 [Example 249]	–	–
–	–	–	–	0.29	2140	0.38	–	0.11	Cn1cc(C(=O)Nc2cn(Cc3cccc(C(F)(F)F)c3)cn2)ccc1=O [Example 242, 1-Methyl-6-oxo-N-{1-[3-(trifluoromethyl)benzyl]-1H-imidazol-4-yl}-1,6-dihydropyridine-3-carboxamide]	particularly potent inhibitory effect	–
4.65	5960	2.91	5760	–	–	–	–	–	O=C(Nc1cn(Cc2cccc(C(F)(F)F)c2)cn1)c1ccncn1 [Example 179]	–	–
–	–	–	–	0.47	370	0.61	–	< 0.01	COc1ccc(/C=C/C(=O)Nc2cn(Cc3cccc(Cl)c3)cn2)cc1O [Example 23, (E)-N-(1-(3-Chlorobenzyl)-1H-imidazol-4-yl)-3-(3-hydroxy-4-methoxyphenyl)acrylamide]	–	particularly potent inhibitory effect
